Reference: ChEMBL document CHEMBL1150061, “Isolation of 9-Dihydro-13-acetylbaccatin III from Taxus canadensis” (J Nat Prod, 1992)
In brackets after ≈: the same amount, converted by molar mass.

System: P388
Assay: Antiproliferative activity against mouse P388 cells by MTT assay
Assay type: functional, cell-based

| IC50 [µg/mL] | Structure (SMILES) |
| --- | --- |
| 20 (≈ 31.7 µM) | CC(=O)O[C@H]1C[C@@]2(O)[C@@H](OC(=O)c3ccccc3)[C@@H]3[C@]4(OC(C)=O)CO[C@@H]4C[C@H](O)[C@@]3(C)[C@@H](O)[C@H](OC(C)=O)C(=C1C)C2(C)C |
| 0.05 (≈ 0.0586 µM) | CC(=O)O[C@H]1C(=O)[C@@]2(C)[C@H]([C@H](OC(=O)c3ccccc3)[C@]3(O)C[C@H](OC(=O)[C@H](O)[C@@H](NC(=O)c4ccccc4)c4ccccc4)C(C)=C1C3(C)C)[C@]1(OC(C)=O)CO[C@@H]1C[C@@H]2O [PACLITAXEL] |
